Laboratory results taken from patent US20240368158A1, “KINASE MODULATORS, COMPOSITIONS COMPRISING THE KINASE MODULATOR, AND METHODS OF USING THE SAME” (BIOFRONT LTD, priority 2021, published 2024).

Assays:
HPK1 = target: T1, HPK1 (Homo sapiens, UniProt Q92918); assay: HPK1 enzyme inhibition assay (ADP-Glo); type: biochemical; settings: MBP substrate, ATP
T1 construct: purchased Signal Chem M23-11G-10
T1 sequence (Q92918 1-346 limits assumed): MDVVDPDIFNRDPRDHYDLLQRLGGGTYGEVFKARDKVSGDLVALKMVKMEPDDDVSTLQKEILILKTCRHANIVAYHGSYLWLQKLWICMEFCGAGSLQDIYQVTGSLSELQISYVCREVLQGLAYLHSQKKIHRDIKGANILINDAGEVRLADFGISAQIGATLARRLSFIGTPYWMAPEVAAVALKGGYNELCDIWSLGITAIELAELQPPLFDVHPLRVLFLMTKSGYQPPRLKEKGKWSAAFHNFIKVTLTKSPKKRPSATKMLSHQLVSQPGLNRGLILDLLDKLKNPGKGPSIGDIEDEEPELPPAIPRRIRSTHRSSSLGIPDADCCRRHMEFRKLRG
Description: The compound was dissolved in 100% DMSO at the concentration of 10 mM. The HPK1 protein was purchased from Signal Chem (M23-11G-10). 2.5 μL per well of 2×HPK1 protein was added to assay plate containing the test compound, centrifuged at 1500 rpm for 1 minute, and then incubated at 25° C. for 60 minutes. MBP protein was purchased from Signal Chem (M42-51N) and ATP was purchased from Promega (V9102). The two were added 2.5 μL per well mixture of 2×MBP (0.2 ug/ul) and ATP (20 μM), centrifuged at 1500 rpm for 1 minute, then incubated at 25° C. for 60 minutes. Then added 5 μL of ADP-Glo from Promega (V9102) to the assay plate and depleted the unconsumed ATP for 60 minutes. Then centrifuged at 1500 rpm for 1 minute and incubated at 25° C. for 60 minutes. Finally, 10 μL of the kinase assay reagent from Promega (V9102) was added to the assay plate to convert ADP to ATP, centrifuged at 1500 rpm for 1 minute, incubate at 25° C. for 40 minutes. After 40 minutes incubation, the […] was determined. Based on the results, the IC50 value of the compound was calculated.

[1] = system: HPK1 p-SLP-76 in Jurkat cells; assay: HPK1 p-SLP-76 inhibition assay in Jurkat cells (HTRF); type: cell-based; settings: Homo sapiens, 4 h compound, anti-CD3 stimulation 20 min
Description: Before compound treatment, Jurkat cells were starved in PRMI-1640 medium supplemented with 0.5% FBS overnight. The cell density was adjusted to 1*10^7 cells/mL in assay medium (RPMI-1640 no phenol red with 0.5% FBS) and 16 uL cell suspension was transferred per well to a 384-well plate (Corning #3765). […] of test compound was prepared in assay medium and 4 uL was added per well to the 384-well plate. The plate was then incubated at 37° C., 5% CO2 for 4 h. Jurkat cells in 384-well plate were stimulated with anti-CD3 (BD Biosciences #555329, final conc. is 10 ug/mL) for 20 min at 37° C., 5% CO2 by adding 4 uL 6× antibody solution per well. Phospho-SLP76 HTRF kit was purchased from Cisbio (63ADK076PEH). 8 uL 4× Lysis Buffer was added to 384-well plate after anti-CD3 stimulation. The plate was centrifuged at 1,000 rpm for 1 min, shaken at 250 rpm for 60 min and centrifuged again at 1,000 rpm for 5 min. Afterwards the cell lysates were transferred to the assay plate (Greiner #784075) with 16 uL per well. 4 uL detection antibody mix per well prepared in Detection Buffer was added to the assay plate, followed by centrifugation at 1,000 rpm for 1 min and incubation at 25° C. overnight. The fluorescence emission at two different wavelengths (665 nm and 620 nm) was read by an HTRF compatible microplate reader and the IC50 value of the compound was calculated.

Row | IC50 (HPK1) [nM] | IC50 [1] [nM] | Compound
1 | 10 to 100 | 3000 to 10000 | CCc1c[nH]c2ncc(-c3cccc(N4CCN(C(=O)CC56CC7CC(CC(C7)C5)C6)CC4=O)c3)c(Cl)c12 [Example 33, 4-(2-((1s,3s)-adamantan-1-yl)acetyl)-1-(3-(4-chloro-3-ethyl-1H-pyrrolo[2,3-b]pyridin-5-yl)phenyl)piperazin-2-one]
2 | 100 to 1000 | > 10000 | COC(=O)c1c[nH]c2ncc(-c3cccc(N4CCNCC4=O)c3)c(Cl)c12 [Example 2, Methyl 4-chloro-5-(3-(2-oxopiperazin-1-yl)phenyl)-1H-pyrrolo[2,3-b]pyridine-3-carboxylate]
3 | 100 to 1000 | > 10000 | O=C1CNCCN1c1cncc(-c2cnc3[nH]cc(C4CC4)c3c2Cl)c1 [Example 19, 1-(5-(4-chloro-3-cyclopropyl-1H-pyrrolo[2,3-b]pyridin-5-yl)pyridin-3-yl)piperazin-2-one]
4 | ≤ 10 | 300 to 3000 | COCC(=O)N1CCN(c2cccc(-c3cnc4[nH]cc(C#Cc5cccnc5)c4c3Cl)c2)C(=O)C1 [Example 29, 1-(3-(4-chloro-3-(pyridin-3-ylethynyl)-1H-pyrrolo[2,3-b]pyridin-5-yl)phenyl)-4-(2-methoxyacetyl)piperazin-2-one]
5 | ≤ 10 | 300 to 3000 | CS(=O)(=O)N1CCN(c2cccc(-c3cnc4[nH]cc(CC(F)F)c4c3Cl)n2)C(=O)C1 [Example 61, 1-(6-(4-chloro-3-(2,2-difluoroethyl)-1H-pyrrolo[2,3-b]pyridin-5-yl)pyridin-2-yl)-4-(methylsulfonyl)piperazin-2-one]
6 | ≤ 10 | 300 to 3000 | CCc1c[nH]c2ncc(-c3cccc(N4CCNCC4=O)c3)c(Cl)c12 [Example 1, 1-(3-(4-chloro-3-ethyl-1H-pyrrolo[2,3-b]pyridin-5-yl)phenyl)piperazin-2-one]
7 | ≤ 10 | 300 to 3000 | CN(C)CCCS(=O)(=O)N1CCN(c2cccc(-c3cnc4[nH]cc(C5CC5)c4c3Cl)c2)C(=O)C1 [Example 56, 1-(3-(4-chloro-3-cyclopropyl-1H-pyrrolo[2,3-b]pyridin-5-yl)phenyl)-4-((3-(dimethylamino)propyl)sulfonyl)piperazin-2-one]
8 | 10 to 100 | 3000 to 10000 | Cc1ccc(C#Cc2c[nH]c3ncc(-c4cccc(N5CCNCC5=O)c4)c(Cl)c23)cn1 [Example 13, 1-(3-(4-chloro-3-((6-methylpyridin-3-yl)ethynyl)-1H-pyrrolo[2,3-b]pyridin-5-yl)phenyl)piperazin-2-one]
9 | ≤ 10 | 300 to 3000 | CCc1c[nH]c2ncc(-c3cccc(N4CCCC(CO)C4=O)c3)c(Cl)c12 (racemic) [Example 22, 1-(3-(4-chloro-3-ethyl-1H-pyrrolo[2,3-b]pyridin-5-yl)phenyl)-3-(hydroxymethyl)piperidin-2-one]
10 | 10 to 100 | 3000 to 10000 | COCC(=O)N1CCN(c2cccc(-c3cnc4[nH]cc(C#Cc5ccccn5)c4c3Cl)c2)C(=O)C1 [Example 35, 1-(3-(4-chloro-3-(pyridin-2-ylethynyl)-1H-pyrrolo[2,3-b]pyridin-5-yl)phenyl)-4-(2-methoxyacetyl)piperazin-2-one]
11 | 10 to 100 | 300 to 3000 | COCCN1CCN(c2cccc(-c3cnc4[nH]cc(CC(F)F)c4c3Cl)c2)C(=O)C1 [Example 37, 1-(3-(4-chloro-3-(2,2-difluoroethyl)-1H-pyrrolo[2,3-b]pyridin-5-yl)phenyl)-4-(2-methoxyethyl)piperazin-2-one]
12 | ≤ 10 | 300 to 3000 | CCc1c[nH]c2ncc(-c3cccc(N4CCN(CCOC)CC4=O)c3)c(Cl)c12 [Example 28, 1-(3-(4-chloro-3-ethyl-1H-pyrrolo[2,3-b]pyridin-5-yl)phenyl)-4-(2-methoxyethyl)piperazin-2-one]

Second part, the compound before the results:

Row | Compound | IC50 (HPK1) [nM] | IC50 [1] [nM]
13 | O=C1CNCCN1c1cccc(-c2cnc3[nH]cc(C#Cc4cccnc4)c3c2Cl)c1 [Example 6, 1-(3-(4-chloro-3-(pyridin-3-ylethynyl)-1H-pyrrolo[2,3-b]pyridin-5-yl)phenyl)piperazin-2-one] | 10 to 100 | 300 to 3000
14 | O=C1CNCCN1c1cc(-c2cnc3[nH]cc(C4CC4)c3c2Cl)ccn1 [Example 18, 1-(4-(4-chloro-3-cyclopropyl-1H-pyrrolo[2,3-b]pyridin-5-yl)pyridin-2-yl)piperazin-2-one] | 10 to 100 | 3000 to 10000
15 | O=C1CNCCN1c1cccc(-c2cnc3[nH]cc(CC(F)F)c3c2Cl)n1 [Example 16, 1-(6-(4-chloro-3-(2,2-difluoroethyl)-1H-pyrrolo[2,3-b]pyridin-5-yl)pyridin-2-yl)piperazin-2-one] | 10 to 100 | 300 to 3000
16 | CCc1c[nH]c2ncc(-c3cccc(N4CCNCC4=O)n3)c(Cl)c12 [Example 9, 1-(6-(4-chloro-3-ethyl-1H-pyrrolo[2,3-b]pyridin-5-yl)pyridin-2-yl)piperazin-2-one] | ≤ 10 | 300 to 3000
17 | CN(C)CC#Cc1c[nH]c2ncc(-c3cccc(N4CCNCC4=O)c3)c(Cl)c12 [Example 8, 1-(3-(4-chloro-3-(3-(dimethylamino)prop-1-yn-1-yl)-1H-pyrrolo[2,3-b]pyridin-5-yl)phenyl)piperazin-2-one] | > 1000 | > 10000
18 | CS(=O)(=O)N1CCN(c2cccc(-c3cnc4[nH]cc(CC(F)F)c4c3Cl)c2)C(=O)C1 [Example 51, 1-(3-(4-chloro-3-(2,2-difluoroethyl)-1H-pyrrolo[2,3-b]pyridin-5-yl)phenyl)-4-(methylsulfonyl)piperazin-2-one] | ≤ 10 | 300 to 3000
19 | CC(C)(C)C#Cc1c[nH]c2ncc(-c3cccc(N4CCNCC4=O)c3)c(Cl)c12 [Example 3, 1-(3-(4-chloro-3-(3,3-dimethylbut-1-yn-1-yl)-1H-pyrrolo[2,3-b]pyridin-5-yl)phenyl) piperazin-2-one] | 100 to 1000 | 300 to 3000
20 | COCCS(=O)(=O)N1CCN(c2cccc(-c3cnc4[nH]cc(C5CC5)c4c3Cl)c2)C(=O)C1 [Example 54, 1-(3-(4-chloro-3-cyclopropyl-1H-pyrrolo[2,3-b]pyridin-5-yl)phenyl)-4-((2-methoxyethyl)sulfonyl)piperazin-2-one] | ≤ 10 | 300 to 3000
21 | CCc1c[nH]c2ncc(-c3cc(N4CCNCC4=O)ccc3CN(C)C)cc12 [Example 40, 1-(4-((dimethylamino)methyl)-3-(3-ethyl-1H-pyrrolo[2,3-b]pyridin-5-yl)phenyl)piperazin-2-one] | > 1000 | > 10000
22 | COCCS(=O)(=O)N1CCN(c2cccc(-c3cnc4[nH]cc(CC(F)F)c4c3Cl)c2)C(=O)C1 [Example 62, 1-(3-(4-chloro-3-(2,2-difluoroethyl)-1H-pyrrolo[2,3-b]pyridin-5-yl)phenyl)-4-((2-methoxyethyl)sulfonyl)piperazin-2-one] | ≤ 10 | 300 to 3000
23 | O=C1CNCCN1c1cccc(-c2cnc3[nH]cc(C4CC4)c3c2Cl)c1 [Example 4, 1-(3-(4-chloro-3-cyclopropyl-1H-pyrrolo[2,3-b]pyridin-5-yl)phenyl) piperazin-2-one] | ≤ 10 | 300 to 3000
24 | CCc1c[nH]c2ncc(-c3cccc(N4CCN(C(=O)CN(C)C)CC4=O)c3)c(Cl)c12 [Example 31, 1-(3-(4-chloro-3-ethyl-1H-pyrrolo[2,3-b]pyridin-5-yl)phenyl)-4-(dimethylglycyl)piperazin-2-one] | ≤ 10 | 300 to 3000
25 | CCc1c[nH]c2ncc(-c3cccc(N4CCN(C(=O)OC)CC4=O)c3)c(Cl)c12 [Example 27, Methyl 4-(3-(4-chloro-3-ethyl-1H-pyrrolo[2,3-b]pyridin-5-yl)phenyl)-3-oxopiperazine-1-carboxylate] | ≤ 10 | ≤ 300
